Values of other authors, collected in patent publication US20240024348A1, “METHODS AND COMPOSITIONS FOR THE TREATMENT OF GLAUCOMA AND RELATED CONDITIONS” (Ophthalmic Therapeutic Innovation, priority 2022, published 2024).
Entries after “also recorded” stand apart in the source; their conditions may differ. Read-outs that look alike come from different tables or passages of the source.

Tests used:
[1] = tested on: ischemia-reperfusion rodent model; conditions: cited from earlier work
[2] = tested on: patients with refractory glaucoma; conditions: two individual patients with refractory glaucoma; cited from earlier work
human TM cell [3] = conditions: high concentration (10 ug/mL); cited from earlier work
[4] = tested on: patients or human subjects; conditions: cited from earlier work; for conjunctiva hyperemia: eye drops, clinical trials
patient with NTG = conditions: cited from earlier work
[5] = tested on: Dutch-belted pigmented and normotensive rabbit eyes; conditions: single dose 0.6% eye drop, cited from earlier work
[6] = tested on: POAG/OH patients with Latanoprost poor responders; conditions: cited from earlier work
young and aged C57 mice = conditions: 7 days, cited from earlier work
light damaged rat models = conditions: cited from earlier work
patients = conditions: 3% QD and 6% QD with 0.005% QD Lantanoprost; cited from earlier work
human TM cell [7] = conditions: human TM cell culture; cited from earlier work
aged mice = conditions: 6% treatment, vs placebo treated eyes; cited from earlier work
NAION mice model = conditions: cited from earlier work
rat = conditions: cited from earlier work
patients with POAG/OH = conditions: cited from earlier work; for IOP reduction: Ph2, 1.5% BID
[8] = human donor eyes; cited from earlier work

Brc1c(NC2=NCCN2)ccc2nccnc12 [Brimonidine, reference compound]
protection of RGC and outer layer photoreceptors [1]: lacks effects toward the outer layer photoreceptor cells | protection of RGC and outer layer photoreceptors ([1]; listed as brimonidine): did not protect photoreceptor loss

CCCCCCCC(=O)CC[C@@H]1[C@@H](C/C=C\CCCC(=O)OC(C)C)[C@@H](O)C[C@H]1O [Rescula]
IOP profile [2]: slow mode and accumulative improvement over time

CC(C)OC(=O)CCC/C=C\C[C@@H]1[C@@H](CC[C@@H](O)CCc2ccccc2)[C@H](O)C[C@@H]1O [Latanoprost]
MMP-9 expression (human TM cell [3]): upregulates MMP-9 expression

Cc1ccc(C(=O)OCc2ccc([C@@H](CN)C(=O)Nc3ccc4cnccc4c3)cc2)c(C)c1 [Rhopressa, reference compound]
conjunctiva hyperemia [4]: 50%

O=C(CCC/C=C\C[C@@H]1[C@@H](CC[C@@H](O)CCc2ccccc2)[C@H](O)C[C@@H]1O)OCCCCO[N+](=O)[O-] [Vyzulta, Latanoprost Bunod]
IOP improvement (patient with NTG; during the first 12-week of 12-month study, Japanese population): less than 1.0 mmHg | IOP improvement (patient with NTG; within the first 12-week of 12-month study): ~0.6 mmmHg

Trabodenoson
IOP reduction from the baseline ([5]; at 2 hours): 25%-27% | time of IOP return to the baseline [5]: 6 h | IOP time course ([6]; 1.5% BID 8 weeks then 3.0% QD 4 weeks, add-on to Latanoprost, 12 weeks): robust and continuous IOP improvement over the course of 12 weeks; also recorded: robust and incremental IOP improvement over a course of 12-week treatment time | effectiveness POAG vs OH ([6]; Lantanoprost poor responders): more effective in patients with POAG than with OH | IOP reduction over time (young and aged C57 mice; 3% QD, young C57 mice): sustained over 7 days | IOP lowering effect over time (young and aged C57 mice; 6% QD, aged C57 mice): slowly diminished at day 7 | photoreceptor cell loss (light damaged rat models): rescuing photoreceptor cell loss | IOP efficacy of combination vs Lantanoprost alone (patients): less effective than 0.005% QD Lantanoprost alone | MMP-14 expression (human TM cell [7]): upregulating MMP-14 expression | collagen IV and fibronectin (human TM cell [7]): downregulation of collagen IV and fibronectin | systemic clinical safety and ocular tolerability ([4]; 819 subjects, 2 weeks to 3 months, 0.15% BID to 6% QD, up to 18% single dose): excellent systemic clinical safety and ocular tolerability | conjunctiva hyperemia [4]: 2.56% | TM morphology / ECM (aged mice): TM mesh pores opening up and ECM remodeling with enlarged ECM space | axon loss and myelination damage of optic nerve (EM) (NAION mice model; 6% eye drops BID, vs placebo control): significant reduction of the axon loss and myelination damage | RGC neural protection (NAION mice model; NAION mice model): potent neural protectant for RGC cell rescue | protection of RGC and outer layer photoreceptors [1]: demonstrated neural protection for both RGC inner layer of the neurons and the outer layer of neurons (photoreceptors); also recorded: more potent in rescuing and protecting the RGC and outer layer photoreceptors from apoptosis | heart rate (rat): reduces the heart rate in rat | IOP dose response curve (IOP reduction from baseline IOP) (patients with POAG/OH; 14-Day Phase 2 dose escalation, 0.15%, 0.3%, 0.6%, 1.5% BID): 0.6% BID peaked at the top | IOP reduction (patients with POAG/OH; day 14, baseline IOP>21 mmHg): 6.5 mmHg | IOP reduction (patients with POAG/OH; day 14, baseline IOP>25 mmHg): > 7 mmHg | IOP improvement, day 28 vs Day 14 (patients with POAG/OH; Phase 2, 1.5% BID eye drops, baseline IOP>21 mmHg, in 2 weeks): 0.9 mmHg | IOP reduction POAG vs OH (patients with POAG/OH; Phase 2, 1.5% BID, early-stage population): higher IOP reduction in patients with POAG than that with OH | IOP reduction from the diurnal IOP at day -1 (patients with POAG/OH; Phase 2 dose escalation, Day 14): 1.5% BID is more effective than 0.15% BID, 0.3% BID, 0.6% BID at Day 14 | Phase 3 IOP endpoint (patients with POAG/OH; Phase 3 clinical trials, 3 months): failed to meet the IOP endpoint at 3 months | IOP time course (patients with POAG/OH; Phase 3 monotherapy, 6% QD, 3 months, vs placebo): incremental increase of the IOP reduction; also recorded: continuous IOP improvement over a course of 3 months with clinical significance compared to placebo | maximal IOP reduction (patients with POAG/OH; eye drops 1.5% BID, day 28 (4 weeks), early stage POAG/OH): 6-7 mmHg | time before reaching a steady state (patients with POAG/OH; eye drops, early stage POAG/OH with very mild damage): more than 3 months

CCNC(=O)CCC/C=C\C[C@@H]1[C@@H](/C=C/[C@@H](O)CCc2ccccc2)[C@H](O)C[C@@H]1O [Bimatoprost]
MMP-9 expression (human TM cell [3]): upregulates MMP-9 expression

B1: MMP-2: matrix metalloproteinase (protein, UniProt P08253 110-660, looked up)
72 kDa type IV collagenase: YNFFPRKPKWDKNQITYRIIGYTPDLDPETVDDAFARAFQVWSDVTPLRFSRIHDGEADIMINFGRWEHGDGYPFDGKDGLLAHAFAPGTGVGGDSHFDDDELWTLGEGQVVRVKYGNADGEYCKFPFLFNGKEYNSCTDTGRSDGFLWCSTTYNFEKDGKYGFCPHEALFTMGGNAEGQPCKFPFRFQGTSYDSCTTEGRTDGYRWCGTTEDYDRDKKYGFCPETAMSTVGGNSEGAPCVFPFTFLGNKYESCTSAGRSDGKMWCATTANYDDDRKWGFCPDQGYSLFLVAAHEFGHAMGLEHSQDPGALMAPIYTYTKNFRLSQDDIKGIQELYGASPDIDLGTGPTPTLGPVTPEICKQDIVFDGIAQIRGEIFFFKDRFIWRTVTPRDKPMGPLLVATFWPELPEKIDAVYEAPQEEKAVFFAGNEYWIYSASTLERGYPKPLTSLGLPPDVQRVDAAFNWSKNKKTYIFAGDKFWRYNEVKKKMDPGFPKLIADAWNAIPDNLDAVVDLQGGGHSYFFKGAYYLKLENQSLKSVKFGSIKSDWLGC
hydraulic conductance of Bruch's membrane [8]: increases hydraulic conductance
